The source of these data is patent US20170334899A1, “AMINO-SUBSTITUTED ISOTHIAZOLES” (Bayer Pharma Aktiengesellschaft, priority 2014, published 2017).

Assay [1] deals with T1, catalytic domain of human Bub1 (amino acids 704-1085) (Homo sapiens, UniProt O43683).
T1 construct: catalytic domain of human Bub1 (amino acids 704-1085); His6 (N); made in house; host or cells: insect cells (Hi5)
Nature of the assay: Bub1 kinase assay (TR-FRET). The assay is classed as biochemical. The settings on record: 10 μM ATP, avg, read-out: Bub1 avg (IC50 [mol/l]). In short, it runs like this: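 Readout is the 665/620 nm TR-FRET ratio from anti-phosphoserine antibody, Eu-labelled anti-mouse IgG and streptavidin-XL665, scaled between no-enzyme and uninhibited controls. Reaction: 1 μM biotinylated peptide, 10 μM ATP, 60 min, 22 °C, after 15 min compound preincubation with His6-Bub1 (704-1085, insect-expressed, ~200 ng/ml).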
Background: In TR-FRET formats the signal depends on donor and acceptor labels being close together.

The next assay has as its system HeLa. Nature of the assay: Proliferation assay (crystal violet), HeLa. The assay is classed as cell-based. The settings on record: Homo sapiens, HeLa, 96 h, HeLa cells; 4 days incubation; crystal violet staining; read-out: IC50 inhibition of proliferation, HeLa. In short, it runs like this:
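Crystal violet proliferation readout, 4-day compound incubation, 0.001–10 μM, final DMSO 0.5%. Zero-point plate stained at time of dosing set as 0%, untreated control as 100%; IC50 via 4-parameter fit.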

Values joined by “and” are separate entries in the source; they are usually repeats but may differ in a detail not shown here. Equal values may be shown once.

T1 sequence (O43683 704-1085): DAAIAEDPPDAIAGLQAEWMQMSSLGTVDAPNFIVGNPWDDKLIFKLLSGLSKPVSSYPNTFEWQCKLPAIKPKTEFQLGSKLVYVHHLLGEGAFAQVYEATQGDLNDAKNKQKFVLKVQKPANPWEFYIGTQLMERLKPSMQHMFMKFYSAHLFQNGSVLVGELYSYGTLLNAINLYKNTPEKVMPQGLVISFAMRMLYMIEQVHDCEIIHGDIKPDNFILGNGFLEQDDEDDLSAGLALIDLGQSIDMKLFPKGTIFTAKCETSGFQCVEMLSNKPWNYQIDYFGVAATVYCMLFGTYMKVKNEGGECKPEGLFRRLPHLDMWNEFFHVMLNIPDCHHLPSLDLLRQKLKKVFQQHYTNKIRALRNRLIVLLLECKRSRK

As to `Cc1nsc(Nc2cnc3ccccc3n2)c1C(=O)Nc1ccc(OC2CCN(C(=O)OC(C)(C)C)CC2)nc1` [Example 18, tert-Butyl 4-{[5-({[3-methyl-5-(quinoxalin-2-ylamino)-1,2-thiazol-4-yl]carbonyl}-amino)pyridin-2-yl]oxy}piperidine-1-carboxylate], the IC50 in assay [1] is at least 20 µM; in the assay on HeLa, 1.2 µM.
In the case of `Cc1nsc(Nc2cncc(C(F)(F)F)n2)c1C(=O)Nc1cccc(S(C)(=O)=O)c1` [Example 194, 3-methyl-N-[3-(methylsulfonyl)phenyl]-5-{[6-(trifluoromethyl)pyrazin-2-yl]amino}-1,2-thiazole-4-carboxamide], the IC50 was > 20 µM and 11 µM and 19 µM in assay [1]; 2.5 µM with HeLa.
On to `Cc1nsc(Nc2cc(C#N)ccn2)c1C(=O)Nc1ccc(NC(=O)OC(C)(C)C)cc1` [Example 177, tert-butyl {4-[({5-[(4-cyanopyridin-2-yl)amino]-3-methyl-1,2-thiazol-4-yl}carbonyl)amino]phenyl}carbamate], for which the IC50 in assay [1] was above 20 µM; in the assay on HeLa, above 10 µM.
For `Cc1nsc(Nc2cnc3ccccc3n2)c1C(=O)Nc1cccc(NC(=O)OC(C)(C)C)c1` [Example 178, tert-butyl [3-({[3-methyl-5-(quinoxalin-2-ylamino)-1,2-thiazol-4-yl]carbonyl}amino)-phenyl]carbamate], in that order: above 20 µM and 3.3 µM.
For `Cc1nsc(Nc2cncc(C(F)(F)F)n2)c1C(=O)Nc1ccc(OCCNC(=O)OC(C)(C)C)c(F)c1` [Example 216, tert-butyl [2-(2-fluoro-4-{[(3-methyl-5-{[6-(trifluoromethyl)pyrazin-2-yl]amino}-1,2-thiazol-4-yl)carbonyl]amino}phenoxy)ethyl]carbamate], in that order: above 20 µM and 0.52 µM.
`Cc1nsc(Nc2cncc(C(F)(F)F)n2)c1C(=O)Nc1ccc(OC2CCNCC2)nc1` [Example 13, 3-Methyl-N-[6-(piperidin-4-yloxy)pyridin-3-yl]-5-{[6-(trifluoromethyl)pyrazin-2-yl]-amino}-1,2-thiazole-4-carboxamide]: the values for the IC50 (in assay [1]; in the assay with HeLa) were at least 20 µM and 10 µM, respectively.
For `Cc1nsc(Nc2ccc(C#N)cn2)c1C(=O)Nc1cccc(NC(=O)OC(C)(C)C)c1` [Example 179, tert-butyl {3-[({5-[(5-cyanopyridin-2-yl)amino]-3-methyl-1,2-thiazol-4-yl}carbonyl)amino]phenyl}carbamate], in that order: above 20 µM and 3.8 µM.
For `Cc1nsc(Nc2ccc(C#N)cn2)c1C(=O)Nc1ccc(S(C)(=O)=O)cc1` [Example 246, 5-[(5-cyanopyridin-2-yl)amino]-3-methyl-N-[4-(methylsulfonyl)phenyl]-1,2-thiazole-4-carboxamide], in that order: above 20 µM and 7.3 µM.
For `Cc1nsc(Nc2cnc(C(F)(F)F)cn2)c1C(=O)Nc1ccc(OCC2CCCN(C(=O)OC(C)(C)C)C2)nc1` (stereo not shown) [Example 228, tert-butyl 3-{[(5-{[(3-methyl-5-{[5-(trifluoromethyl)pyrazin-2-yl]amino}-1,2-thiazol-4-yl)carbonyl]amino}pyridin-2-yl)oxy]methyl}piperidine-1-carboxylate], in that order: above 20 µM and 0.27 µM.
In the case of `Cc1nsc(Nc2cnc(C(F)(F)F)cn2)c1C(=O)Nc1ccc(OC2CCN(C(=O)OC(C)(C)C)CC2)c(F)c1` [Example 217, tert-butyl 4-(2-fluoro-4-{[(3-methyl-5-{[5-(trifluoromethyl)pyrazin-2-yl]amino}-1,2-thiazol-4-yl)carbonyl]amino}phenoxy)piperidine-1-carboxylate], the IC50 in assay [1] was above 20 µM; in the assay on HeLa, 0.17 µM.
For `COC(=O)c1cc(NC(=O)c2c(C)nsc2Nc2cnc3ccccc3n2)cc(C(=O)OC)c1` [Example 237, dimethyl 5-({[3-methyl-5-(quinoxalin-2-ylamino)-1,2-thiazol-4-yl]carbonyl}amino)isophthalate], in that order: above 20 µM and above 10 µM.
In the case of `Cc1nsc(Nc2cc(C#N)ccn2)c1C(=O)Nc1ccc(Oc2cccc(C(F)(F)F)c2)nc1` [Example 230, 5-[(4-cyanopyridin-2-yl)amino]-3-methyl-N-{6-[3-(trifluoromethyl)phenoxy]pyridin-3-yl}-1,2-thiazole-4-carboxamide], the IC50 is above 20 µM in assay [1] and 0.58 µM in the assay on HeLa.
Consider `Cc1cc(C)n(-c2ccccc2NC(=O)c2c(C)nsc2Nc2cnc3ccccc3n2)n1` [Example 243, N-[2-(3,5-dimethyl-1H-pyrazol-1-yl)phenyl]-3-methyl-5-(quinoxalin-2-ylamino)-1,2-thiazole-4-carboxamide], for which the IC50 was above 20 µM in assay [1] and above 10 µM in the assay with HeLa.
Regarding `Cc1nsc(Nc2ccc(C#N)cn2)c1C(=O)Nc1ccc(F)c(C(N)=O)c1` [Example 203, N-(3-carbamoyl-4-fluorophenyl)-5-[(5-cyanopyridin-2-yl)amino]-3-methyl-1,2-thiazole-4-carboxamide], the IC50 in assay [1] was above 20 µM; with HeLa, above 10 µM.
For `CC(=O)Nc1cc(NC(=O)c2c(C)nsc2Nc2cnc(C(F)(F)F)cn2)ccc1F` [Example 206, N-(3-acetamido-4-fluorophenyl)-3-methyl-5-{[5-(trifluoromethyl)pyrazin-2-yl]amino}-1,2-thiazole-4-carboxamide], in that order: 13 µM and 5.1 µM.
For `Cc1nsc(Nc2cncc(C(F)(F)F)n2)c1C(=O)Nc1ccc(OC2CCN(CC(F)(F)F)CC2)nc1` [Example 16, 3-Methyl-N-(6-{[1-(2,2,2-trifluoroethyl)piperidin-4-yl]oxy}pyridin-3-yl)-5-{[6-(trifluoromethyl)pyrazin-2-yl]amino}-1,2-thiazole-4-carboxamide], in that order: at least 20 µM and 0.69 µM.
In the case of `Cc1nsc(Nc2cncc(C(F)(F)F)n2)c1C(=O)Nc1ccc(C(=O)NC2CCN(CC(F)F)CC2)cc1` [Example 225, N-N-(4-{[1-(2,2-difluoroethyl)piperidin-4-yl]carbamoyl}phenyl)-3-methyl-5-{[6-(trifluoromethyl)pyrazin-2-yl]amino}-1,2-thiazole-4-carboxamide], the results for the IC50 (in assay [1]; in the assay on HeLa) were above 20 µM and 8.3 µM, respectively.
Turning to `Cc1nsc(Nc2cncc(C(F)(F)F)n2)c1C(=O)Nc1ccc(OCCCN)nc1` [Example 209, N-[6-(3-aminopropoxy)pyridin-3-yl]-3-methyl-5-{[6-(trifluoromethyl)pyrazin-2-yl]amino}-1,2-thiazole-4-carboxamide], the IC50 was above 20 µM in assay [1] and above 10 µM in the assay with HeLa.
For `Cc1nsc(Nc2cnc(C(F)(F)F)cn2)c1C(=O)Nc1ccc(OCCNC(=O)OC(C)(C)C)nc1` [Example 192, tert-butyl {2-[(5-{[(3-methyl-5-{[5-(trifluoromethyl)pyrazin-2-yl]amino}-1,2-thiazol-4-yl)carbonyl]amino}pyridin-2-yl)oxy]ethyl}carbamate], in that order: above 20 µM and 1.2 µM.
For `CC(=O)N1CCC(Oc2ccc(NC(=O)c3c(C)nsc3Nc3cncc(C(F)(F)F)n3)cn2)CC1` [Example 17, N-{6-[(1-Acetylpiperidin-4-yl)oxy]pyridin-3-yl}-3-methyl-5-{[6-(trifluoromethyl)-pyrazin-2-yl]amino}-1,2-thiazole-4-carboxamide], in that order: at least 20 µM and 2.4 µM.
For `Cc1nsc(Nc2cnc3ccccc3n2)c1C(=O)Nc1ccc(C(N)=O)c(F)c1` [Example 201, N-(4-carbamoyl-3-fluorophenyl)-3-methyl-5-(quinoxalin-2-ylamino)-1,2-thiazole-4-carboxamide], in that order: above 20 µM and above 10 µM.
`Cc1nsc(Nc2cc(C#N)ccn2)c1C(=O)Nc1cccc(C(=O)OC(C)(C)C)c1` [Example 239, tert-butyl 3-[({5-[(4-cyanopyridin-2-yl)amino]-3-methyl-1,2-thiazol-4-yl}carbonyl)amino]benzoate]: the IC50 was above 20 µM in assay [1] and 1.1 µM with HeLa.
Regarding `Cc1nsc(Nc2cc(C#N)ccn2)c1C(=O)Nc1cccc(NC(=O)C(C)(C)C)c1` [Example 183, 5-[(4-cyanopyridin-2-yl)amino]-N-{3-[(2,2-dimethylpropanoyl)amino]phenyl}-3-methyl-1,2-thiazole-4-carboxamide], the IC50 is above 20 µM in assay [1] and 5 µM in the assay on HeLa.
`Cc1nsc(Nc2cnc3ccccc3n2)c1C(=O)Nc1ccccc1S(C)(=O)=O` [Example 188, 3-methyl-N-[2-(methylsulfonyl)phenyl]-5-(quinoxalin-2-ylamino)-1,2-thiazole-4-carboxamide]: the IC50 was above 20 µM in assay [1] and above 10 µM with HeLa.
Turning to `Cc1nsc(Nc2cnccn2)c1C(=O)Nc1ccc(C(=O)OC(C)(C)C)cc1` [Example 184, tert-butyl 4-({[3-methyl-5-(pyrazin-2-ylamino)-1,2-thiazol-4-yl]carbonyl}amino)benzoate], the IC50 in assay [1] is above 20 µM; in the assay on HeLa, 3.8 µM.
For `Cc1nsc(Nc2ccc(C#N)cn2)c1C(=O)Nc1cccc(C(=O)OC(C)(C)C)c1` [Example 240, tert-butyl 3-[({5-[(5-cyanopyridin-2-yl)amino]-3-methyl-1,2-thiazol-4-yl}carbonyl)amino]benzoate], the values for the IC50 (in assay [1]; in the assay with HeLa) were above 20 µM and 0.75 µM, respectively.
